Among the data in patent publication US20230391786A1, “cGAS INHIBITORS” (Eli Lilly and Company, priority 2022, published 2023) are IC50 values, retold here.

Sequence of recombinant human cGAS (Q8N884 whole entry): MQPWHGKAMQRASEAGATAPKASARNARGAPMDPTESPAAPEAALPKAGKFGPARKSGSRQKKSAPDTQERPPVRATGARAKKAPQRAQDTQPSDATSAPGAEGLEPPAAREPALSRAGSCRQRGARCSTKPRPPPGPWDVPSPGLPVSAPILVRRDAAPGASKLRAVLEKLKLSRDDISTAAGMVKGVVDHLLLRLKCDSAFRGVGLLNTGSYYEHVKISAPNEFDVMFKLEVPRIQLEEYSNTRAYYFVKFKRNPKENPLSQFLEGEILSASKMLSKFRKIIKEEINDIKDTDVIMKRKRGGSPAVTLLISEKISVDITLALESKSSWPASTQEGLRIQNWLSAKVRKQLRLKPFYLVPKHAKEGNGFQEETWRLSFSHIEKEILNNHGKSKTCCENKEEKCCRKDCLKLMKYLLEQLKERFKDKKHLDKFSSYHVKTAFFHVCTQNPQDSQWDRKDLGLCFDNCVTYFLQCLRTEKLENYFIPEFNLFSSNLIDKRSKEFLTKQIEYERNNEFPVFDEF

The target of one test is recombinant human cGAS (Homo sapiens (Human), UniProt Q8N884). The test is described as follows: In vitro inhibition assay of cGAS activity (cGAMP production, RapidFire mass spectrometry). The settings on record: 10 nM recombinant human cGAS, 60 nM 75-bp dsDNA, ATP, GTP, room temperature 3 hours, read-out: IC50 (μM), In vitro inhibition assay for Compounds 1-94. In kind it is biochemical. How it is done:
Expression and Purification of Recombinant cGAS Protein: Insert cDNA encoding full-length of human cGAS into a modified bacterial expression vector containing an in-frame His6-tag. Induce the E. coli strain BL21(DE3) harboring the plasmid with 1 mM IPTG (Isopropyl β-D-1-thiogalactopyranoside) at 18° C. overnight. Purify the His6-tagged cGAS protein over HISpur Ni-NTA resin in the presence of benzonase and RNase followed by Superdex 200 size exclusion chromatography with storage buffer (50 mM Tris-HCl pH 7.5, 300 mM NaCl, 1 mM DTT, 10% glycerol).
In vitro inhibition assay of cGAS activity: Add a 5 μL mixture containing 10 mM Tris-Cl pH 7.5, 50 mM NaCl, 5 mM MgCl2, 1 mM DTT, 0.01% Triton X-100, 60 nM 75-bp dsDNA, […], 50 μM GTP, 10 nM of recombinant human cGAS, and serial dilutions of a test compound in DMSO to a 384-well plate and incubate at room temperature for 3 hours. Quench the reaction by the addition of 100 μL of stop solution containing 0.1% formic acid and 0.1 μM internal standard (3′3′-difluoro cGAMP). Measure the amount of cGAMP produced by RapidFire 365 mass spectrometry and evaluate inhibitory effect of a compound by plotting percent specific inhibition of cGAMP production against log concentration of the test compound. Calculate IC50 values using a 4-parameter non-linear logistic equation (y=(S0+((SInf−S0)/(1+((qAC50/x)^nHill))))).
As for `N#Cc1c(Cl)ccc2c(-c3cn[nH]c3)c[nH]c12` [Example 93, 6-Chloro-3-(1H-pyrazol-4-yl)-1H-indole-7-carbonitrile], the 50% inhibitory concentration (IC50) is 0.18 µM.
With `O=C(O)CCn1cc(-c2cn[nH]c2)c2ccc(Cl)c(Cl)c21` [Example 35, 3-[6,7-Dichloro-3-(1H-pyrazol-4-yl)indol-1-yl]propanoic acid], the IC50 stood at 0.0737 µM.
As for `O=C1NC(CO)Cn2c1c(-c1cn[nH]c1)c1ccc(Cl)c(Cl)c12` (centres unmarked) [Example 80, 6,7-Dichloro-3-(hydroxymethyl)-10-(1H-pyrazol-4-yl)-3,4-dihydro-2H-pyrazino[1,2-a] indol-1-one], the IC50 was determined as 0.0818 µM.
For `O=C1NCCn2c1c(-c1cn[nH]c1)c1ccc(Cl)c(Cl)c12` [Example 31, 6,7-Dichloro-10-(1H-pyrazol-4-yl)-3,4-dihydro-2H-pyrazino[1,2-a]indol-1-one], the IC50 was 0.0462 µM.
In the case of `O=C1CCn2c(c(-c3cn[nH]c3)c3ccc(Cl)c(Cl)c32)N1` [Example 55, 6,7-Dichloro-10-(1H-pyrazol-4-yl)-3,4-dihydro-1H-pyrimido[1,2-a]indol-2-one], the IC50 came out at 0.0946 µM.
Take `O[C@H]1C[C@@H](Nc2cc(Cl)c(Cl)c3[nH]cc(-c4cn[nH]c4)c23)C1` [Example 67, (cis)-3-((6,7-Dichloro-3-(1H-pyrazol-4-yl)-1H-indol-4-yl)amino)cyclobutanol]: the concentration for half-maximal inhibition (IC50) worked out at 0.0371 µM.
On to `OCC1CCn2c(c(-c3cn[nH]c3)c3ccc(Cl)c(Cl)c32)C1` (single isomer, unassigned) [Example 16, [3,4-Dichloro-10-(1H-pyrazol-4-yl)-6,7,8,9-tetrahydropyrido[1,2-a]indol-8-yl]methanol], for which the IC50 was 0.0674 µM.
Same read-out and setting: the result for `N#CCOc1cc(Cl)c(Cl)c2[nH]cc(-n3ccnc3)c12` [Example 61, 2-[(6,7-Dichloro-3-imidazol-1-yl-1H-indol-4-yl)oxy]acetonitrile] reads 0.0326 µM.
As for `Clc1ccc2c(-n3ccnc3)c[nH]c2c1Cl` [Example 29, 6,7-Dichloro-3-imidazol-1-yl-1H-indole], the IC50 turned out to be 0.0447 µM.
With `CS(=O)(=O)NC1CCc2c(-c3cn[nH]c3)c3ccc(Cl)c(Cl)c3n2C1` (single isomer, unassigned) [Example 22, N-[3,4-Dichloro-10-(1H-pyrazol-4-yl)-6,7,8,9-tetrahydropyrido[1,2-a]indol-7-yl]methanesulfonamide], the IC50 worked out at 0.0225 µM.
Take `N#CCOc1cc(Cl)c(Cl)c2c1c(-c1cn[nH]c1)c1n2CCN(C(=O)CO)C1` [Example 89, 2-((6,7-Dichloro-2-(2-hydroxyacetyl)-10-(1H-pyrazol-4-yl)-1,2,3,4-tetrahydropyrazino[1,2-a]indol-9-yl)oxy)acetonitrile]: the IC50 turned out to be 0.0112 µM.
`CC(=O)NC1CCc2c(-c3cn[nH]c3)c3ccc(Cl)c(Cl)c3n2C1` (single isomer, unassigned) [Example 21, N-[3,4-Dichloro-10-(1H-pyrazol-4-yl)-6,7,8,9-tetrahydropyrido[1,2-a]indol-7-yl]acetamide]: the IC50 worked out at 0.0243 µM.
For the compound `CCOc1cc(Cl)c(Cl)c2[nH]cc(-c3cn[nH]c3)c12` [Example 56, 6,7-Dichloro-4-ethoxy-3-(1H-pyrazol-4-yl)-1H-indole], the IC50 was 0.0826 µM.
Turning to `O=C(C1COCCO1)N1CCn2c(c(-c3cn[nH]c3)c3ccc(Cl)c(Cl)c32)C1` (centres unmarked) [Example 51, [6,7-dichloro-10-(1H-pyrazol-4-yl)-3,4-dihydro-1H-pyrazino[1,2-a]indol-2-yl]-(1,4-dioxan-2-yl)methanone], the IC50 came to 0.0427 µM.
With `N#CCOc1cc(Cl)c(Cl)c2c1c(-c1cn[nH]c1)c1n2CCNC1` [Example 88, 2-((6,7-Dichloro-10-(1H-pyrazol-4-yl)-1,2,3,4-tetrahydropyrazino[1,2-a]indol-9-yl)oxy)acetonitrile], the IC50 was 0.0219 µM.
Turning to `CN1CCn2c(c(-c3cn[nH]c3)c3c(NCC#N)cc(Cl)c(Cl)c32)C1=O` [Example 86, 2-[[6,7-Dichloro-2-methyl-1-oxo-10-(1H-pyrazol-4-yl)-3,4-dihydropyrazino[1,2-a]indol-9-yl]amino]acetonitrile], the 50% inhibitory concentration (IC50) was found to be 0.0485 µM.
Still for that read-out and setting: the result for `Clc1ccc2c(-c3cn[nH]c3)c(CNc3ccon3)[nH]c2c1Cl` [Example 6, N-[[6,7-Dichloro-3-(1H-pyrazol-4-yl)-1H-indol-2-yl]methyl]isoxazol-3-amine] reads 0.0578 µM; that for `N#CCOc1cc(Cl)c(F)c2[nH]cc(-n3ccnc3)c12` [Example 72, 2-[(6-Chloro-7-fluoro-3-imidazol-1-yl-1H-indol-4-yl)oxy]acetonitrile], 0.0772 µM.
In the case of `O=C(O)C1CCn2c(c(-c3cn[nH]c3)c3ccc(Cl)c(Cl)c32)C1` (single isomer, unassigned) [Example 14, 3,4-Dichloro-10-(1H-pyrazol-4-yl)-6,7,8,9-tetrahydropyrido[1,2-a]indole-8-carboxylic acid], the IC50 was 0.0309 µM.
With `CC(C#N)Oc1cc(Cl)c(Cl)c2[nH]cc(-c3cn[nH]c3)c12` (centres unmarked) [Example 60, 2-[[6,7-Dichloro-3-(1H-pyrazol-4-yl)-1H-indol-4-yl]oxy]propanenitrile], the IC50 is 0.0855 µM.
Turning to `OCC1CCn2c(c(-c3cn[nH]c3)c3ccc(Cl)c(Cl)c32)C1` (single isomer, unassigned) [Example 15, [3,4-Dichloro-10-(1H-pyrazol-4-yl)-6,7,8,9-tetrahydropyrido[1,2-a]indol-8-yl]methanol], the IC50 amounted to 0.289 µM.

Still in this test, the particulars now being: 10 nM recombinant human cGAS, 60 nM 75-bp dsDNA, ATP, GTP, room temperature 3 hours, read-out: IC50 (μM), In vitro inhibition assay for Compounds 95-348.
In the case of `O[C@@H]1CC[C@@H](Oc2cc(Cl)c(Cl)c3[nH]cc(-c4cn[nH]c4)c23)C1` (racemic) [Example 99, trans-3-((6,7-Dichloro-3-(1H-pyrazol-4-yl)-1H-indol-4-yl)oxy)cyclopentan-1-ol (racemic mixture)], the IC50 came to 0.0593 µM.
In the case of `Cn1ncnc1CCC(=O)N1CCn2c(c(-c3cn[nH]c3)c3ccc(Cl)c(Cl)c32)C1` [Example 110, 1-[6,7-Dichloro-10-(1H-pyrazol-4-yl)-3,4-dihydro-1H-pyrazino[1,2-a]indol-2-yl]-3-(2-methyl-1,2,4-triazol-3-yl)propan-1-one], the half-inhibitory concentration (IC50) is 0.0561 µM.
Still for that read-out and setting: the result for `O=C(NCc1[nH]c2c(Cl)c(Cl)ccc2c1-c1cn[nH]c1)c1cscn1` [Example 104, N-((6,7-Dichloro-3-(1H-pyrazol-4-yl)-1H-indol-2-yl)methyl)thiazole-4-carboxamide] reads 0.0872 µM; that for `CN(C)C1(CC(=O)N2CCn3c(c(-c4cn[nH]c4)c4ccc(Cl)c(Cl)c43)C2)COC1` [Example 330, 1-(6,7-Dichloro-10-(1H-pyrazol-4-yl)-3,4-dihydropyrazino[1,2-a]indol-2(1H)-yl)-2-(3-(dimethylamino)oxetan-3-yl)ethan-1-one], 0.0801 µM; that for `CN1CCN(CC(=O)N2CCn3c(c(-c4cn[nH]c4)c4ccc(Cl)c(Cl)c43)C2)C1=O` [Example 313, 1-(2-(6,7-Dichloro-10-(1H-pyrazol-4-yl)-3,4-dihydropyrazino[1,2-a]indol-2(1H)-yl)-2-oxoethyl)-3-methylimidazolidin-2-one], 0.0489 µM.
`O=C1COCCN1CC(=O)N1CCn2c(c(-c3cn[nH]c3)c3ccc(Cl)c(Cl)c32)C1` [Example 315, 4-(2-(6,7-Dichloro-10-(1H-pyrazol-4-yl)-3,4-dihydropyrazino[1,2-a]indol-2(1H)-yl)-2-oxoethyl)morpholin-3-one]: the IC50 was found to be 0.0503 µM.
Regarding `COC1(C(=O)N2CCn3c(c(-c4cn[nH]c4)c4ccc(Cl)c(Cl)c43)C2)CCOC1` (centres unmarked) [Example 334, (6,7-Dichloro-10-(1H-pyrazol-4-yl)-3,4-dihydropyrazino[1,2-a]indol-2(1H)-yl)(3-methoxytetrahydrofuran-3-yl)methanone], the IC50 was 0.0985 µM.
Take `CN1C(=O)SC(CC(=O)N2CCn3c(c(-c4cn[nH]c4)c4ccc(Cl)c(Cl)c43)C2)C1=O` (centres unmarked) [Example 323, 5-(2-(6,7-Dichloro-10-(1H-pyrazol-4-yl)-3,4-dihydropyrazino[1,2-a]indol-2(1H)-yl)-2-oxoethyl)-3-methylthiazolidine-2,4-dione]: the IC50 came out at 0.0613 µM.
Regarding `CN1C(=O)CN(CC(=O)N2CCn3c(c(-c4cn[nH]c4)c4ccc(Cl)c(Cl)c43)C2)C1=O` [Example 327, 1-(2-(6,7-Dichloro-10-(1H-pyrazol-4-yl)-3,4-dihydropyrazino[1,2-a]indol-2(1H)-yl)-2-oxoethyl)-3-methylimidazolidine-2,4-dione], the IC50 stood at 0.0635 µM.
Take `COCCN1CC(C(=O)N2CCn3c(c(-c4cn[nH]c4)c4ccc(Cl)c(Cl)c43)C2)CC1=O` (centres unmarked) [Example 312, 4-(6,7-dichloro-10-(1H-pyrazol-4-yl)-1,2,3,4-tetrahydropyrazino[1,2-a]indole-2-carbonyl)-1-(2-methoxyethyl)pyrrolidin-2-one]: the half-maximal inhibitory concentration (IC50) worked out at 0.0468 µM.
As to `CCC(=O)NC(C)C(=O)N1CCn2c(c(-c3cn[nH]c3)c3ccc(Cl)c(Cl)c32)C1` (centres unmarked) [Example 329, N-(1-(6,7-Dichloro-10-(1H-pyrazol-4-yl)-3,4-dihydropyrazino[1,2-a]indol-2(1H)-yl)-1-oxopropan-2-yl)propionamide], the half-maximal inhibitory concentration (IC50) was determined as 0.0682 µM.

The term IC50 denotes the concentration at which inhibition is half-maximal.
